The record followed here is patent publication US20230248834A1, “DEGRADATION OF (EGFR) BY CONJUGATION OF EGFR INHIBITORS WITH E3 LIGASE LIGAND AND METHODS OF USE” (BEIGENE, LTD., priority 2020, published 2023).

One assay concerns the target T1, EGFR L858R/T790M/C797S (Homo sapiens, UniProt P00533, C797S/L858R/T790M).
T1 construct: expressed in transfected cells; host or cells: BaF3-LTC
The assay can be described thus: EGFR degradation HTRF assay in BaF3-LTC cells. The class given is cell-based. As to conditions: BaF3-LTC (L858R/T790M/C797S), maximum percentage of inhibition (degradation); read-out: BaF3-LTC Dmax (%). The procedure:
(§1) BaF3-LTC(L858R/T790M/C797S) cells and BaF3 LC(L858R/C797S) cells are treated with compounds diluted in 0.2% DMSO cell culture medium and incubate for 16 h, 37° C., 5% CO2. the final concentration of compounds in all assay is start with 10 uM, 5-fold dilution, total 8 doses were included.
(§2) After 16 h treatment, add HTRF lysis buffer to each well; seal the plate and incubate 1 hour at room temperature on a plate shaker; Once the cells are lysed, 16 μL of cell lysate are transferred to a PE 384-well HTRF detection plate; 4 μL of pre-mixed HTRF antibodies are added to each well; Cover the plate with a plate sealer, spin 1000 rpm for 1 min, Incubate overnight at room temperature; Read on BMG PheraStar with HTRF protocol (337 nm-665 nm-620 nm).
(§3) The inhibition (degradation) percentage of the compound was calculated by the following equation: Inhibition percentage of Compound=100−100×(Signal−low control)/(High control−low control), wherein signal=each test compound group
(§4) High control=Cell group with added DMSO and without compound, indicating microplate readings without EGFR degradation;
(§5) Dmax is the maximum percentage of inhibition (degradation).
(§6) The IC50 (DC50) value of a compound can be obtained by fitting the following equation
(§7) Y=Bottom+(TOP−Bottom)/(1+((IC50/X)^hillslope))
(§8) Wherein, X and Y are known values, and IC50, Hillslope, Top and Bottom are the parameters obtained by fitting with software. Y is the inhibition percentage (calculated from the equation), X is the concentration of the compound; IC50 is the concentration of the compound when the 50% inhibition is reached. The smaller the IC50 value is, the stronger the inhibitory ability of the compound is. Vice versa, the higher the IC50 value is, the weaker the inhibitory ability of the compound is; Hillslope represents the slope of the fitted curve, generally around 1*; Bottom represents the minimum value of the curve obtained by data fitting, which is generally 0%±20%; Top represents the maximum value of the curve obtained by data fitting, which is generally 100%±20%. The experimental data were fitted by calculating and analyzing with Dotmatics data analysis software.

A further assay addresses T2, EGFR L858R/C797S (Homo sapiens, UniProt P00533, C797S/L858R).
T2 construct: expressed in transfected cells; host or cells: BaF3 LC
The assay can be described thus: EGFR degradation HTRF assay in BaF3 LC cells. As to conditions: BaF3 LC (L858R/C797S), maximum percentage of inhibition (degradation); read-out: BaF3 LC Dmax (%). The class given is cell-based. The procedure: as §1, §2, §3, §4, §5, §6, §7, §8

SMILES strings stand for the structures.

T1 sequence (P00533 25-1210 T790M/C797S/L858R): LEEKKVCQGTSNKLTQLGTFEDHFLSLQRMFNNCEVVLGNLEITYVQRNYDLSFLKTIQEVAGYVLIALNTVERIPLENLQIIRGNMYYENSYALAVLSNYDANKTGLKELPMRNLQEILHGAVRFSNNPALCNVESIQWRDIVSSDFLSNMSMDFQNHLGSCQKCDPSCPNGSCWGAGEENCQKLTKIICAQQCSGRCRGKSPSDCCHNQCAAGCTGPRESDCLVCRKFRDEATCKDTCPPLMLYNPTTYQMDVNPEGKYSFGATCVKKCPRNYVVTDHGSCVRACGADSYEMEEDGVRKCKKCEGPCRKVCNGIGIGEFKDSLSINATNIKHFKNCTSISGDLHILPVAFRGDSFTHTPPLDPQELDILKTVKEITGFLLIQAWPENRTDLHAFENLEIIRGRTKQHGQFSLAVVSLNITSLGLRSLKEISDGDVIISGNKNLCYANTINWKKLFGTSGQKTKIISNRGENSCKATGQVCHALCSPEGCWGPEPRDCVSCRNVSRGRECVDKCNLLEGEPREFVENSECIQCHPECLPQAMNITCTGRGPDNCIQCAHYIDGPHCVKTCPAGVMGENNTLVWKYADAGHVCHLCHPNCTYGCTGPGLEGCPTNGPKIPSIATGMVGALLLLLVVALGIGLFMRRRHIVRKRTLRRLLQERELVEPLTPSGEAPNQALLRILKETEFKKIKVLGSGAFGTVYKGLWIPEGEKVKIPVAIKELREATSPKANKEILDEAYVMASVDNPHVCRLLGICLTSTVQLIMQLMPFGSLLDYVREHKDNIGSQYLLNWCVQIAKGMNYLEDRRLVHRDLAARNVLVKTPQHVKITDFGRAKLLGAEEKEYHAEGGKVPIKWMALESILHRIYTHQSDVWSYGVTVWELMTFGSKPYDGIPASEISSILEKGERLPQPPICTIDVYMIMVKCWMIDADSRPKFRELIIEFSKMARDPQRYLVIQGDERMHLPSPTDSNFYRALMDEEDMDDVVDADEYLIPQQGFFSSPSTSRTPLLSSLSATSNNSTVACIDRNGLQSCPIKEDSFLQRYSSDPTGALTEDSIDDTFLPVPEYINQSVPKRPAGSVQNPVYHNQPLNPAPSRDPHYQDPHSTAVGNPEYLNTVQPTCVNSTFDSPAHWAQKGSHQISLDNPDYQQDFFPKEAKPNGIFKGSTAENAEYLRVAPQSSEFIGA
T2 sequence (P00533 25-1210 C797S/L858R): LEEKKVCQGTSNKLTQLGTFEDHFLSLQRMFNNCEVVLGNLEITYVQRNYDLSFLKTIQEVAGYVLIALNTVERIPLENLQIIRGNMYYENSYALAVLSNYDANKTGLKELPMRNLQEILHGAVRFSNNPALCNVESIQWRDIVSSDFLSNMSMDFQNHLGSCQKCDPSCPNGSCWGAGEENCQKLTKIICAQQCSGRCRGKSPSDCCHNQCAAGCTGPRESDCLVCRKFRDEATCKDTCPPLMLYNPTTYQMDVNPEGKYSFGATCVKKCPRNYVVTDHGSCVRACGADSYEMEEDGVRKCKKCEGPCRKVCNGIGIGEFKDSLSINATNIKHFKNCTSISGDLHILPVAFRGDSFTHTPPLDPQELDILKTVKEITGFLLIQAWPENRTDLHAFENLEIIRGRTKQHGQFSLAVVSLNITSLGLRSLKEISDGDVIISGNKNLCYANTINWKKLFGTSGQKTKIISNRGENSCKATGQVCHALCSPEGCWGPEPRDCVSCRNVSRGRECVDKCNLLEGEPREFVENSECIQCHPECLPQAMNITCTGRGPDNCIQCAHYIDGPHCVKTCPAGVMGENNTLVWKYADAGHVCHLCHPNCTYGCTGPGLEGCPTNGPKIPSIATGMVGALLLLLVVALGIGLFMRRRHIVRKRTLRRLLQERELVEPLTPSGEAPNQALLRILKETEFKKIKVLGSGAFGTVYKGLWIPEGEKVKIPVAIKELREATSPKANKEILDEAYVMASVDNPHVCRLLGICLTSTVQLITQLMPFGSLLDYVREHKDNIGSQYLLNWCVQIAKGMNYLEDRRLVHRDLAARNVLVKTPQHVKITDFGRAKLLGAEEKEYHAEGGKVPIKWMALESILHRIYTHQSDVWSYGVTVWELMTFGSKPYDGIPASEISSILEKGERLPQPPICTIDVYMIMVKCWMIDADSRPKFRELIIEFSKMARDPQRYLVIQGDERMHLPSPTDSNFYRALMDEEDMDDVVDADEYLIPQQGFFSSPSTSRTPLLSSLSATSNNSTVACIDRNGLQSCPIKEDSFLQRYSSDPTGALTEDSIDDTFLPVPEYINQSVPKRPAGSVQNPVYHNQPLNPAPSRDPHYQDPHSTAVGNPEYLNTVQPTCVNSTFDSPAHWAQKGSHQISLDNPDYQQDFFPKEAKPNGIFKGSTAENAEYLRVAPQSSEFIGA

As to `CCc1cc(Nc2ncc(Br)c(Nc3ccc4nc(C)ccc4c3P(C)(C)=O)n2)c(OC)cc1N1CCC(N2CCN(C(=O)[C@H]3CN(c4cc(F)c([C@H]5CCC(=O)NC5=O)c(F)c4)CC3(C)C)CC2)CC1` [Example 487, (R)-3-(4-((R)-4-(4-(1-(4-((5-bromo-4-((5-(dimethylphosphoryl)-2-methylquinolin-6-yl)amino)pyrimidin-2-yl)amino)-2-ethyl-5-methoxyphenyl)piperidin-4-yl)piperazine-1-carbonyl)-3,3-dimethylpyrrolidin-1-yl)-2,6-difluorophenyl)piperidine-2,6-dione], the Dmax amounted to 98% at EGFR L858R/T790M/C797S and 95.6% at EGFR L858R/C797S.

Regarding `CCc1ccc2c(P(C)(C)=O)c(Nc3nc(Nc4cc(CC)c(N5CCC(N6CCN(CCc7ccc8c(c7)oc(=O)n8C7CCC(=O)NC7=O)CC6)CC5)cc4OC)ncc3Br)ccc2n1` (stereo not shown) [Example 491, 3-(6-(2-(4-(1-(4-((5-bromo-4-((5-(dimethylphosphoryl)-2-ethylquinolin-6-yl)amino)pyrimidin-2-yl)amino)-2-ethyl-5-methoxyphenyl)piperidin-4-yl)piperazin-1-yl)ethyl)-2-oxobenzo[d]oxazol-3(2H)-yl)piperidine-2,6-dione], the Dmax stood at 92.7% on EGFR L858R/T790M/C797S and 94.7% at EGFR L858R/C797S.

Turning to `CCOc1cc(N2CCC(N3CCN(CCc4c(F)ccc5c4n(CC)c(=O)n5C4CCC(=O)NC4=O)CC3)CC2)c(CC)cc1Nc1ncc(Br)c(Nc2ccc3c(=O)n(CC)ncc3c2P(C)(C)=O)n1` (stereo not shown) [Example 559, 3-(4-(2-(4-(1-(4-((5-bromo-4-((5-(dimethylphosphoryl)-2-ethyl-1-oxo-1,2-dihydrophthalazin-6-yl)amino)pyrimidin-2-yl)amino)-5-ethoxy-2-ethylphenyl)piperidin-4-yl)piperazin-1-yl)ethyl)-3-ethyl-5-fluoro-2-oxo-2,3-dihydro-1H-benzo[d]imidazol-1-yl)piperidine-2,6-dione], the Dmax was found to be 92.4% at EGFR L858R/T790M/C797S and 90.4% on EGFR L858R/C797S.

As for `CCOc1cc(N2CCC(N3CCN(CCc4cccc5c4oc(=O)n5C4CCC(=O)NC4=O)CC3)CC2)c(CC)cc1Nc1ncc(Br)c(Nc2ccc3nc(CC)ccc3c2P(C)(C)=O)n1` (stereo not shown) [Example 473, 3-(7-(2-(4-(1-(4-((5-bromo-4-((5-(dimethylphosphoryl)-2-ethylquinolin-6-yl)amino)pyrimidin-2-yl)amino)-5-ethoxy-2-ethylphenyl)piperidin-4-yl)piperazin-1-yl)ethyl)-2-oxobenzo[d]oxazol-3(2H)-yl)piperidine-2,6-dione], the Dmax at EGFR L858R/T790M/C797S was found to be 94.6%; at EGFR L858R/C797S, 85.5%.

Consider `CCOc1cc(N2CCC(N3CCN(CCc4cccc5c4C(C)(C)C(=O)N5C4CCC(=O)NC4=O)CC3)CC2)c(CC)cc1Nc1ncc(Br)c(Nc2ccc3nc(CC)ccc3c2P(C)(C)=O)n1` (stereo not shown) [Example 572, 3-(4-(2-(4-(1-(4-((5-bromo-4-((5-(dimethylphosphoryl)-2-ethylquinolin-6-yl)amino)pyrimidin-2-yl)amino)-5-ethoxy-2-ethylphenyl)piperidin-4-yl)piperazin-1-yl)ethyl)-3,3-dimethyl-2-oxoindolin-1-yl)piperidine-2,6-dione], for which the Dmax on EGFR L858R/T790M/C797S amounted to 90.3%; at EGFR L858R/C797S, 91.8%.

Turning to `CCOc1cc(N2CCC(N3CCN(CCc4cccc5c4oc(=O)n5C4CCC(=O)NC4=O)CC3)CC2)c(CC)cc1Nc1ncc(Br)c(Nc2cc(F)c3nc(CC)ccc3c2P(C)(C)=O)n1` (stereo not shown) [Example 493, 3-(7-(2-(4-(1-(4-((5-bromo-4-((5-(dimethylphosphoryl)-2-ethyl-8-fluoroquinolin-6-yl)amino)pyrimidin-2-yl)amino)-5-ethoxy-2-ethylphenyl)piperidin-4-yl)piperazin-1-yl)ethyl)-2-oxobenzo[d]oxazol-3(2H)-yl)piperidine-2,6-dione], the Dmax at EGFR L858R/T790M/C797S was 95.2%; on EGFR L858R/C797S, 87.1%.

For `CCc1ccc2c(P(C)(C)=O)c(Nc3nc(Nc4cc(C)c(N5CCC(N6CCN(CCc7cccc8c7n(C)c(=O)n8C7CCC(=O)NC7=O)CC6)CC5)cc4OC4CC4)ncc3Br)ccc2n1` (stereo not shown) [Example 584, 3-(4-(2-(4-(1-(4-((5-bromo-4-((5-(dimethylphosphoryl)-2-ethylquinolin-6-yl)amino)pyrimidin-2-yl)amino)-5-cyclopropoxy-2-methylphenyl)piperidin-4-yl)piperazin-1-yl)ethyl)-3-methyl-2-oxo-2,3-dihydro-1H-benzo[d]imidazol-1-yl)piperidine-2,6-dione], the Dmax came to 95.6% at EGFR L858R/T790M/C797S and 92.8% at EGFR L858R/C797S.

As for `CCc1cc(Nc2ncc(Br)c(Nc3ccc4nc(C)c(F)cc4c3P(C)(C)=O)n2)c(OC)cc1N1CCC(N2CCN(C(=O)[C@@H]3CCN(c4cc(F)c([C@H]5CCC(=O)NC5=O)c(F)c4)C3)CC2)CC1` [Example 488, (R)-3-(4-((R)-3-(4-(1-(4-((5-bromo-4-((5-(dimethylphosphoryl)-3-fluoro-2-methylquinolin-6-yl)amino)pyrimidin-2-yl)amino)-2-ethyl-5-methoxyphenyl)piperidin-4-yl)piperazine-1-carbonyl)pyrrolidin-1-yl)-2,6-difluorophenyl)piperidine-2,6-dione], the Dmax came out at 96.6% at EGFR L858R/T790M/C797S and 92.8% on EGFR L858R/C797S.

Regarding `CCOc1cc(N2CCC(N3CCN(CCc4cc(F)cc5c4n(C)c(=O)n5C4CCC(=O)NC4=O)CC3)CC2)c(CC)cc1Nc1ncc(Br)c(Nc2ccc3nc(CC)ccc3c2P(C)(C)=O)n1` (stereo not shown) [Example 462, 3-(4-(2-(4-(1-(4-((5-bromo-4-((5-(dimethylphosphoryl)-2-ethylquinolin-6-yl)amino)pyrimidin-2-yl)amino)-5-ethoxy-2-ethylphenyl)piperidin-4-yl)piperazin-1-yl)ethyl)-6-fluoro-3-methyl-2-oxo-2,3-dihydro-1H-benzo[d]imidazol-1-yl)piperidine-2,6-dione], the figures for the Dmax at EGFR L858R/T790M/C797S and on EGFR L858R/C797S were 84.5% and 89.9%, respectively.

As for `CCc1cc(Nc2ncc(Br)c(Nc3ccc4nc(C)ccc4c3P(C)(C)=O)n2)c(OC)cc1N1CCC(N2CCN(C(=O)[C@@H]3CCN(c4cc(F)c([C@H]5CCC(=O)NC5=O)c(F)c4)C3)CC2)CC1` [Example 750, (R)-3-(4-((R)-3-(4-(1-(4-((5-bromo-4-((5-(dimethylphosphoryl)-2-methylquinolin-6-yl)amino)pyrimidin-2-yl)amino)-2-ethyl-5-methoxyphenyl)piperidin-4-yl)piperazine-1-carbonyl)pyrrolidin-1-yl)-2,6-difluorophenyl)piperidine-2,6-dione], the Dmax was determined as 95.4% at EGFR L858R/T790M/C797S and 94.3% on EGFR L858R/C797S.

`CCOc1cc(N2CCC(N3CCN(C(=O)[C@@H]4CCN(c5cc(F)c([C@H]6CCC(=O)NC6=O)c(F)c5)C4)CC3)CC2)c(CC)cc1Nc1ncc(Br)c(Nc2ccc3nc(C)c(F)cc3c2P(C)(C)=O)n1` [Example 577, (R)-3-(4-((R)-3-(4-(1-(4-((5-bromo-4-((5-(dimethylphosphoryl)-3-fluoro-2-methylquinolin-6-yl)amino)pyrimidin-2-yl)amino)-5-ethoxy-2-ethylphenyl)piperidin-4-yl)piperazine-1-carbonyl)pyrrolidin-1-yl)-2,6-difluorophenyl)piperidine-2,6-dione]: the greatest degradation seen (Dmax) on EGFR L858R/T790M/C797S was 88.6%; on EGFR L858R/C797S it was 89.1%.
